Data as given in patent US9328372B2, “Coenzyme-linked glucose dehydrogenase and polynucleotide encoding the same” (Ikeda Food Research Co., Ltd., priority 2005, dated 2016).

System: coenzyme-linked glucose dehydrogenase
Test: Inhibitor test with 1,10-phenanthroline
Type: biochemical, Aspergillus terreus
Experimental: 1.0 ml of 0.1 M potassium phosphate buffer (pH 7.0), 1.0 ml of 1.0 M D-glucose, 0.1 ml of 3 mM 2,6-dichlorophenolindophenol (hereinafter, referred to as DCIP), 0.2 ml of 3 mM 1-methoxy-5-methylphenazium methylsulfate, and 0.65 ml of water are placed in a 3 ml quartz cell (with an optical path length of 1 cm), and then the cell is placed in a spectrophotometer equipped with a thermostat cell holder. After the cell is incubated at 37° C. for five minutes, 0.05 ml of an enzyme liquid is added thereto, followed by measuring absorbance change (αABS/min) of DCIP at 600 nm. The mol-absorption coefficient of DCIP at pH 7.0 is defined to be 16.3×10^3 cm^−1M^−1. Since one unit of the enzyme activity is substantially equivalent to the enzyme activity that reduces 1 μmol of DCIP per minute, the enzyme activity is determined by absorbance change in accordance with the following formula. To the reaction system in the activity measurement method-1, 1,10-phenanthroline dissolved in methanol so that each final concentration was 1 mM, 5 mM, 10 mM, 25 mM, or 50 mM, was added, followed by measuring the activity of the purified enzymes 1 to 6 by the activity measurement method-1. […] As a control, methanol was added to the reaction system in the activity measurement method-1 at the final concentration of 10% (v/v), and then the activity was measured by the activity measurement method-1. […]

inhibition ratio (1,10-phenanthroline at final concentration of 1 mM or more, purified enzymes 1 to 6, 10% (v/v) methanol): ≥ 60%
inhibition of the activity by 1,10-phenanthroline (GLD according to the invention, general characteristics, concentration not given): At least 60%
Compound: c1cnc2c(c1)ccc1cccnc12 [1,10-phenanthroline]
